“Also recorded” adds a separate entry of the source.
What was measured:
[1] = Absorption spectra of photosensitizers in chloroform; format: physicochemical; details: for log6 at first band λmax / log6 at second band λmax / log6 at third band λmax / λmax (nm), first band / λmax (nm), second band / λmax (nm), third band: in chloroform
[2] = test system: HeLa cells; test: Distribution ratio (cellular uptake by fluorescence); format: cell-based; details: for distribution ratio [Sen/g cells]/[Sen/ml medium]: extra-cellular drug 0 to 5 μM, HB 15 min, 2-BA-2-DMHB 6 h, 37° C.
Protocol: HeLa cells were maintained as monolayer culture in DMEM containing 5% FBS and antibiotics PS (80 U/ml penicillin and 100 μg/ml streptomycin) at 37° C. in a humidified 5% CO2 incubator.
The distribution ratio or the photosensitizer is defined as [Sen/g cells]/[Sen/ml medium]. The values were measured as described previously. Exponentially growing cells were incubated in DMEM with HB for 15 min or with 2-BA-2-DMHB for 6 h at 37° C., ranging from 0 to 5 μM. […] The washed pellets (2×10^6) were dispersed in 3 ml of 10 mM Triton X-100 detergent. These solutions were excited at 460 nm and the fluorescence emission spectra were acquired using Hitachi-F4500 fluorescence spectrophotometer. Fluorescence at 610 nm was determined, corrected for the fluorescence of control (drug-free) sample, and compared with a standard fluorescence-intensity curve prepared with HB and 2-BA-2-DMHB solutions of known concentration.

[3] = test system: HeLa cells; test: DNA agarose gel electrophoresis (DNA ladder); format: cell-based; details: for DNA ladder, photosensitizer alone: 4 μM incubation, no light; for DNA ladder at early times: 3 and 6 h post-irradiation; for DNA ladder after photosensitization: 24 h after treatment at LD70 and LD90
Protocol: Stock sensitizer-DMSO solutions were diluted with DMEM containing 1% FBS. […] The cells were detached using 0.2% trypsin/0.5 mM EDTA solution in PBS and centrifuge-washed to remove unbound dyes. The cells were then transferred to 35-mm dishes (Costar)) 1 ml inch dish containing 3×10s cells, and irradiated with different doses of light. […] Immediately after irradiation, 2 ml DMEM containing 7.5% FBS was added to each dish.
The DNA was extracted as described previously [18] with some modification. Cells (2×106) were detached with the use of 0.2% trypsin/0.5 mM EDTA solution washed with PBS and pelleted by centrifugation. The cell pellets were suspended in lysis buffer consisting of 0.5% sodium dodecyl sulfate (SDS), 2 mM EDTA, 100 mg/ml proteinase K, and SO mM Tris-HC buffer (pH 8.0). After 24 h lysis at 37° C., the DNA was extracted with an equal volume of water-saturated phenol/chloroform/isoamyl alcohol (25:24:1). The aqueous phase was collected and DNA was precipitated with 0.5 volume ammonium acetate and 2.5 volumes cold absolute ethanol, and stored overnight at −20° C. The DNA was dissolved in TE (0.5 M EDTA in 1 M Tris-HCl buffer, pH 8.0) and incubated with DNase-free RNase A (100 mg/ml) at 37° C. for 1 h. The samples were electrophoresed for 3 h at 60 V in 1.5% agarose gel containing 0.5 μg ml^−1 ethidium bromide and visualized by UV transillumination.

[4] = test system: HeLa cells; test: Flow cytometric detection of DNA fragmentation (PI staining); format: cell-based; details: for induction of apoptosis: evidenced by Hoechst staining, gel electrophoresis and flow cytometry; for hypoploid cell population: photosensitized cells
Protocol: Stock sensitizer-DMSO solutions were diluted with DMEM containing 1% FBS. […] The cells were detached using 0.2% trypsin/0.5 mM EDTA solution in PBS and centrifuge-washed to remove unbound dyes. The cells were then transferred to 35-mm dishes (Costar)) 1 ml inch dish containing 3×10s cells, and irradiated with different doses of light. The light source was a Red Light Treatment Instrument (Institute of Electronic Academia Sinica, China), Its total power output, more than 90% at 600–700 nm was 50 mW cm^2 at the position of the, samples, measured with BTY-8204 radiometer (Beijing Institute of Solar Energy, China). Immediately after irradiation, 2 ml DMEM containing 7.5% FBS was added to each dish. Then a portion of the cells was assessed for survival as follows and the rest were incubated in the medium until they could be checked for nucleus staining, DNA fragmentation and flow cytometry analysis.
A propidium iodide (PI) staining technique was used to assess the status of cellular DNA [19]. Cells were washed twice with ice-cold PBS and then permeabilized and fixed in 80% ethanol at 4° C. for 24 h. Cells were washed twice with PBS and suspended in PBS with RNase A (100 mg/ml) and incubated at 37° C. for 30 min. At this point the PI solution (10 mg/ml in PBS) was added to the cells in RNase solution, and the incubation was continued for 30 min at 4° C. After that, the cells were analyzed by Epics XL flow cytometer (Coulter, USA).

[5] = Superoxide anion radical generation by DMPO spin-trapping ESR; format: physicochemical; details: in DMSO, relative to HB
Protocol: (§1) Singlet oxygen yields were determined as previously reported by the DPA bleaching method. The electron spin resonance (ESR) measurement of, spin trapping of DMPO was used to determine the generation of O2 by hypocrellins.
DMPO spin-trapping ESR measurement was used here to verify the formation of superoxide anion radical generated by photosensitization of HB and 2-BA-2-DMHB.

[6] = test system: HeLa cells; details: for photopotentiation factor (LD50 dark / LD50 with 24 J cm−2 red light): MTT assay
Protocol: Stock sensitizer-DMSO solutions were diluted with DMEM containing 1% FBS. […] The cells were detached using 0.2% trypsin/0.5 mM EDTA solution in PBS and centrifuge-washed to remove unbound dyes. The cells were then transferred to 35-mm dishes (Costar)) 1 ml inch dish containing 3×10s cells, and irradiated with different doses of light. […] Immediately after irradiation, 2 ml DMEM containing 7.5% FBS was added to each dish. Then a portion of the cells was assessed for survival as follows and the rest were incubated in the medium until they could be checked for nucleus staining, DNA fragmentation and flow cytometry analysis.
Cell survival was estimated by the MTT assay [11,15,16]. PDT-treated cells were transferred into flat-bottomed 96-well plates (Costar) 100 μl in each well containing 1×10^4 cells and the cells were incubated at 37° C. in a. CO2, incubator for 20 h. Viability was determined by adding 10 μl MTT (10 mg ml^−1) to each well, and the mixture was incubated for 4 h at 37° C. Culture medium was then replaced with dimethylsulfoxide to dissolve the formazan crystals. […] Samples were measured in 12 replicates and each experiment was repeated at least twice. Survival of PDT-treated cells was normalized against cells incubated with photosensitizer alone.

[7] = test system: HeLa cells; test: Hoechst 33342 nuclear staining for apoptotic nuclei; format: cell-based
Protocol: Treated and control cells were incubated in DMEM with 0.5% FBS for 24 h at 37° C., then collected by detachment and centrifugation and incubated in a growth medium (FBS free) containing 5 μM H0342 for 5 min at 37° C. Nuclear fragmentation was assessed by fluorescence microscopy using Nikon FxA microscope. The EX wavelength was 330–380 nm with EM monitored at 420–450 nm.

[8] = test system: HeLa cells; test: Sensitizer localization by fluorescence microscopy; format: cell-based; details: 4 μM; HB 15 min, 2-BA-2-DMHB 6 h
Protocol: Cells growing on glass were incubated in DMEM with 4 μM HB for 15 min or with 4 μM 2-BA-2-DMHB for 6 h at 37° C. Fluorescence was visualized by Nikon FXA microscope to assess sites of sensitizer location (excitation=400–450 nm, emission=600–650 nm).

[9] = test system: HeLa cells; test: Dark toxicity, MTT assay; format: cell-based; details: HB 15 min, 2-BA-2-DMHB 6 h; highest concentration tested 100 μM
Protocol: The dark toxicity characteristic of each compound was assessed separately following a similar procedure for cell exposure to graded doses of […] for 15 min or 2-BA-2-DMHB for 6 h. Precautions were taken to avoid exposure of the cells to light throughout the period when'the cells were exposed to, or contained, photosensitizers.

[10] = test system: AIDS; details: cited from earlier work
[11] = test system: EMT6 Ed mouse tumor cells; details: 24 J cm−2; Estey's results [8]; cited from earlier work
[12] = in vivo; cited from earlier work
[13] = Singlet oxygen yield by DPA bleaching method; format: physicochemical; details: in DMSO
Protocol: as §1

CCCCNc1c(O)c2c(=O)cc(OC)c3c4c(OC)cc(=O)c5c(O)c(OC)c6c(c(c1C(C(C)=O)=C(C)C6)c23)c54 [Example 2-BA-2-DMHB, 2-butylamino-2-demethoxy-hypocrellin B]
extinction coefficient at 583 nm relative to HB at 548 nm [1]: 2.5 fold
extinction coefficient at 621 nm relative to HB at 580 nm [1]: over 3.8 fold
log6 at first band λmax [1]: 4.06
log6 at second band λmax [1]: 4.09
log6 at third band λmax [1]: 4.10
λmax (nm), first band [1]: 463 nm
λmax (nm), second band [1]: 583 nm
λmax (nm), third band [1]: 621 nm
intra-cellular level relative to HB ([2]; equimolar levels of the drugs): approximately two fold as much as HB; also recorded: approximately two times as much as that of HB
distribution ratio [Sen/g cells]/[Sen/ml medium] [2]: 107.2±4.3
DNA ladder, photosensitizer alone [3]: No DNA ladder was observed
DNA ladder at early times [3]: No obvious DNA ladder was detected
DNA ladder after photosensitization [3]: characteristic DNA ladder observed
induction of apoptosis [4]: induced apoptosis
hypoploid cell population ([4]; LD90): appearance of hypoploid cell population
speed of apoptosis induction ([4]; post-irradiation, LD90): induced apoptosis more quickly than HB
Relative quantum yields (O2−) ([5]; listed as 2-BA-2-DMHD): 2.7
photopotentiation factor (LD50 dark / LD50 with 24 J cm−2 red light) [6]: more than 250 fold
photopotentiation relative to HB ([6]; in vitro): over 25 fold
concentration causing 50% cytotoxicity at light dose of 24 J cm−2 ([6]; red light 24 J cm−2): 0.25–0.5 FM
nuclear morphology in the absence of light irradiation ([7]; 4 μM, 6 h, dark control): remained intact
apoptotic nuclei after photosensitization ([7]; LD70, 24 h post-irradiation): apoptotic nuclei were detected
sites of sensitizer localization [8]: primarily at ER; also recorded: mainly localized at endoplasmic reticulum
LD50 in the dark [9]: more than 100 μM

COc1c(O)c2c(=O)cc(OC)c3c4c(OC)cc(=O)c5c(O)c(OC)c6c(c(c1CC(C)=C6C(C)=O)c23)c54 [HB, 3,10-dihydroxyl-4,9-dione-1,12-(2′-methyl-3′-actyl-2′,3′-dehydro)propilidene(1′,3′)-2,6,7,11-tetramethoxyl-perylene, reference compound]
anti-AIDS action [10]: distinct anti-AIDS action
log6 at first band λmax [1]: 4.06
log6 at second band λmax [1]: 3.70
log6 at third band λmax [1]: 3.52
λmax (nm), first band [1]: 466 nm
λmax (nm), second band [1]: 548 nm
λmax (nm), third band [1]: 580 nm
distribution ratio [Sen/g cells]/[Sen/ml medium] [2]: 49.1±2.2
DNA ladder, photosensitizer alone [3]: No DNA ladder was observed
DNA ladder at early times [3]: No obvious DNA ladder was detected
DNA ladder after photosensitization [3]: characteristic DNA ladder observed
photopotentiation factor [11]: 10
toxicity in animals [12]: low toxicity
induction of apoptosis [4]: induced apoptosis
hypoploid cell population ([4]; LD90): appearance of hypoploid cell population
Relative quantum yields (O2−) [5]: 1
photopotentiation factor (LD50 dark / LD50 with 24 J cm−2 red light) [6]: 10 fold
sites of sensitizer localization [8]: prominent lysosomal uptake, and endoplasmic reticulum (ER) staining; also recorded: mainly localized at lysosomal and endoplasmic reticulum
Quantum yields (1O2), singlet oxygen yield [13]: 0.76
LD50 in the dark [9]: about 20 μM

COc1c(O)c2c(=O)cc(OC)c3c4c(OC)cc(=O)c5c(O)c(OC)c6c(c(c1CC(C)(O)C6C(C)=O)c23)c54 (stereo not drawn) [hypocrellin A, 3,10-dihydroxyl-4,9-dione-1,12-(2′-hydroxyl-2′-methyl-3′-actyl)propilidene(1′,3′)-2,6,7,11-tetramethoxyl-perylene]
toxicity in animals [12]: low toxicity
